The source of these data is paper PMC2799460 (Environmental Health Perspectives, 2009).

Read-outs that look alike come from different tables or passages of the source.

For one series, the target named is T1, estrogen receptor (ER) (Homo sapiens, UniProt P03372).
T1 construct: endogenous in cells; host or cells: BG1Luc4E2 (human ovarian cell line per title of Rogers and Denison 2000)
Description: ER CALUX luciferase reporter bioassay (BG1Luc4E2/ER-α-positive cells). The series is classed as cell-based. Conditions: for EC50: agonist, ER CALUX luciferase induction.

Series [1] addresses T2, human carboxylesterase CES1 (Homo sapiens, UniProt P23141).
T2 construct: made in house; host or cells: baculovirus-insect cells
T2 sequence (P23141 18-567): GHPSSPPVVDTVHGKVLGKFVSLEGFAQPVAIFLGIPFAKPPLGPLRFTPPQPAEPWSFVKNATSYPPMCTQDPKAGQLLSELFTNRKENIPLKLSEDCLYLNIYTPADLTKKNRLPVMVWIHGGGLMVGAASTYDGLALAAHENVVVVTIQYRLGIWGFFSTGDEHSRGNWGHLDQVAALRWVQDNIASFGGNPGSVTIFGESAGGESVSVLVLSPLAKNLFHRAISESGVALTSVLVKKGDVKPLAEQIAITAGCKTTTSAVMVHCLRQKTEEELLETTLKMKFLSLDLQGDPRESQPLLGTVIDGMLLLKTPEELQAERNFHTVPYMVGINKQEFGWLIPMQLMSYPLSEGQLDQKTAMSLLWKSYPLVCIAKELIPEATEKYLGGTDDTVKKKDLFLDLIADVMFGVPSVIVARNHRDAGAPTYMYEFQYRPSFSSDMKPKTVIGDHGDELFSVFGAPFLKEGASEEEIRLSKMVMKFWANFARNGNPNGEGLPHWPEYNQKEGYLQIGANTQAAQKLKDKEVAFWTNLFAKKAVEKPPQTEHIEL
Description: biochemical.

Series [2] deals with T3, CYP450 2C9 (Homo sapiens, UniProt P11712). Description: biochemical.
The target in series [3] is T4, human carboxylesterase CES3 (Homo sapiens, UniProt Q6UWW8).
T4 construct: made in house; host or cells: baculovirus-insect cells
T4 sequence (Q6UWW8 27-571): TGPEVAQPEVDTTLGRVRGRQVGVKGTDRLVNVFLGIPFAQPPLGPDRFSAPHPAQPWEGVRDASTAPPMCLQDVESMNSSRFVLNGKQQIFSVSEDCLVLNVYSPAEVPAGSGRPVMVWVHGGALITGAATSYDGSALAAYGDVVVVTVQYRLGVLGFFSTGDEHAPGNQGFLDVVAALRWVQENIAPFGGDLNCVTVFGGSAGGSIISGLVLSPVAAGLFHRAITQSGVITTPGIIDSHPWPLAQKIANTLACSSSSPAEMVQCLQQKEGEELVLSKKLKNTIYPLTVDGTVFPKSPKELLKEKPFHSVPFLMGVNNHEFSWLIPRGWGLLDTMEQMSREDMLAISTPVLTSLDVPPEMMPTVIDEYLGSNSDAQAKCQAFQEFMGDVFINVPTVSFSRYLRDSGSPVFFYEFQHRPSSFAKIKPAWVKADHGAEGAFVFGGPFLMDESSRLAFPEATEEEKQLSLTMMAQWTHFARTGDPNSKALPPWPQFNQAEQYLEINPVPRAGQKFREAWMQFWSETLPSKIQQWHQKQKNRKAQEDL
Put plainly: human CES3 enzyme inhibition assay (CMNA substrate). It is filed as biochemical. From the text: (§1) Recombinant human soluble epoxide hydrolase (sEH) was produced in a baculovirus expression system ([Beetham et al. 1993]) and purified by affinity chromatography ([Wixtrom et al. 1988]). […] The CESs were partially purified as previously described ([Nishi et al. 2006]), whereas microsomal preparations were used for FAAH and PON2 ([Huang et al. 2007]). Human liver cytosol and microsome extracts were obtained from BD Biosciences (San Jose, CA). Protein concentration was quantified using the Pierce BCA (bicinchoninic acid) assay (Pierce, Rockford, IL) using bovine serum albumin (BSA) as the calibrating standard.
(§2) Although the conditions for each enzyme assay were different (for details, see Table 1), the enzymatic assays were all run in a similar format. Enzymes were used at a concentration that results in linear generation of product with increasing time and protein concentration, as well as yielding a signal that was 3–20 times greater than the background. […]
(§3) For counterscreening, fresh solutions of all positive compounds were prepared in DMSO. […] IC50 values were calculated by nonlinear regression of at least five data points using SigmaPlot, version 9.01 (Systat Software Inc., Chicago, IL). […] Similarly, half-maximal effective concentration (EC50) values for agonists of the AhR and ER bioassays were determined, and the results are presented as the mean of triplicate analysis. […]

Series [4] deals with T5, human soluble epoxide hydrolase (sEH) (Homo sapiens, UniProt P34913).
T5 construct: made in house; host or cells: baculovirus expression system
T5 sequence (P34913 1-555): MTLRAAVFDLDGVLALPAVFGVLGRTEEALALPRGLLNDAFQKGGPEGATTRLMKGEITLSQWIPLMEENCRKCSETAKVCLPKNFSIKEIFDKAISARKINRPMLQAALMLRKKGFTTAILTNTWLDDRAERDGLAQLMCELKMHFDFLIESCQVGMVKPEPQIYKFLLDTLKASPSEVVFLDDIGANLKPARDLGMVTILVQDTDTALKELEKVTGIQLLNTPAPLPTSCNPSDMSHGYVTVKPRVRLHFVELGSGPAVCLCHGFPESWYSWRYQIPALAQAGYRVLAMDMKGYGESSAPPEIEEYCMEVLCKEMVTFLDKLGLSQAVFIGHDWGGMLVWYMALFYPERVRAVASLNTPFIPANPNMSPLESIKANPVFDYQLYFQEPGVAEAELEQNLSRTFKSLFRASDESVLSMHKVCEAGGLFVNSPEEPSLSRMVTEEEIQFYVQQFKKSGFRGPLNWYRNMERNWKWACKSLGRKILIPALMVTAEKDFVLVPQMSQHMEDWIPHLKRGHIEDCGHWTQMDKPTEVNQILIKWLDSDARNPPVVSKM
Put plainly: human sEH enzyme inhibition assay (CMNPC substrate, fluorescence kinetic). It is filed as biochemical. As to conditions: recombinant purified enzyme, CMNPC 5 μM, counterscreen; mean ± SD.
Excerpt: as §1, §2, §3

The target in series [5] is T3, CYP450 2C9.
Series [6] deals with T6, aryl hydrocarbon receptor (AhR) (Mus musculus, UniProt P30561).
T6 sequence (P30561 10-848): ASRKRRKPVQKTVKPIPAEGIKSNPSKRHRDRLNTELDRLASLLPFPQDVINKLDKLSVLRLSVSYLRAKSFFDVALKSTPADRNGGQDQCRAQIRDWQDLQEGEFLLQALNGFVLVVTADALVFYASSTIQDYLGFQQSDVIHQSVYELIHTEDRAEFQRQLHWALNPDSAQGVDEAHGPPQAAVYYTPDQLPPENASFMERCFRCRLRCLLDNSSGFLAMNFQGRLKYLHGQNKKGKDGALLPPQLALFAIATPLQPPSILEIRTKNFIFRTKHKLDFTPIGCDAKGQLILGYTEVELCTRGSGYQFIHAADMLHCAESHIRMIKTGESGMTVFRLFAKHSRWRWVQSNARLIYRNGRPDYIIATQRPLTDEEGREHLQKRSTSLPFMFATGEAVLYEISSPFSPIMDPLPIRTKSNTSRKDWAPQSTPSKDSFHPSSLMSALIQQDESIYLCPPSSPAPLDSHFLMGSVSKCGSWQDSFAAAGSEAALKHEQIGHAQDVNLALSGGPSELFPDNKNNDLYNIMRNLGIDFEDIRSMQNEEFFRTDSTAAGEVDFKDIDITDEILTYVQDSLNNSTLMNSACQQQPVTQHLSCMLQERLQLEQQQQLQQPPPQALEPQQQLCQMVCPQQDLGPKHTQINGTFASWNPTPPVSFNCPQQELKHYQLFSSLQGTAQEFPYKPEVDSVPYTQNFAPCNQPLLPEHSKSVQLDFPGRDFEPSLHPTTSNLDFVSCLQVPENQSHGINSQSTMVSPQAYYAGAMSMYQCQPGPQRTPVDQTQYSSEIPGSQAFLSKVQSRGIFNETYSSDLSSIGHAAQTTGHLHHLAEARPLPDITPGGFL
Description: cell-based.

T1 sequence (P03372 whole entry): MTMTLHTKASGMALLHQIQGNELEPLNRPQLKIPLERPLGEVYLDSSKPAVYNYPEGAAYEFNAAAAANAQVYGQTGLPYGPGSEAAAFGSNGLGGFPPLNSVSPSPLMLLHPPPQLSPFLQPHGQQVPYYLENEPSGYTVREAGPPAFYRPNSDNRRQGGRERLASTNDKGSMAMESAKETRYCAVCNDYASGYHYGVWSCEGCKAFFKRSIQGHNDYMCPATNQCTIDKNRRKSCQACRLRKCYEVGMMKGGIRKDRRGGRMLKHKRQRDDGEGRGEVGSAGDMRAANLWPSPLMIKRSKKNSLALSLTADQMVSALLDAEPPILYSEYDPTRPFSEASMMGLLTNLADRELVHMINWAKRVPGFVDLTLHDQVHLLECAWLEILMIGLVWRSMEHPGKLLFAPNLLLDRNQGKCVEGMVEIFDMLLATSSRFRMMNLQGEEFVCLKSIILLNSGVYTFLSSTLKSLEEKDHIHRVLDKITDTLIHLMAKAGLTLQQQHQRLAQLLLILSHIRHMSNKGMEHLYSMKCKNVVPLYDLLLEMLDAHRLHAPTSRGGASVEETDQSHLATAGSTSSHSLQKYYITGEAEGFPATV
T3 sequence (P11712 whole entry): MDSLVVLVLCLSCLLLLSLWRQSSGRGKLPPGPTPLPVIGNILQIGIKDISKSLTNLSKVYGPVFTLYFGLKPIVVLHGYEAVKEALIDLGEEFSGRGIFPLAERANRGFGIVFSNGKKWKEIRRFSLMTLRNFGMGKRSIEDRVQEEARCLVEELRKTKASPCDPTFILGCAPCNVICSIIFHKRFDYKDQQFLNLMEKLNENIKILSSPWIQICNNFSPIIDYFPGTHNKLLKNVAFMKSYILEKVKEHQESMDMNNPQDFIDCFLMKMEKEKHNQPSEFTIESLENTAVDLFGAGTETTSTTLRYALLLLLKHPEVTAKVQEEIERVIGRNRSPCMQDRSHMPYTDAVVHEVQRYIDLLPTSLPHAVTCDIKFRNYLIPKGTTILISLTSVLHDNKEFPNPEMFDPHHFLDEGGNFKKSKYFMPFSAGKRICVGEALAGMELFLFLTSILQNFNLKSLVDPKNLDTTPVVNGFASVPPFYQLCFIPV

The EC50 is the concentration giving half of the maximal effect. Low values mean an effect from little substance, high ones a need for much substance. At estrogen receptor (ER), `ClC(Cl)=C(c1ccc(Cl)cc1)c1ccccc1Cl` [o,p-DDE, dichlorodiphenyldichloroethylene] yielded an EC50 of 1200 nM. At estrogen receptor (ER) (relative to E2), the “EC50 for ER induction, fold less potent than E2” value is on record as “approximately 10^5 fold”.
Usually IC50 stands for the point on the concentration scale where inhibition reaches its midpoint. With `O=P(Oc1ccccc1)(Oc1ccccc1)Oc1ccccc1` [TPP, triphenyl phosphate], the 50% inhibitory concentration (IC50) in series [1] was found to be 43 ± 3 nM.
`CCOP(=S)(OCC)Oc1nc(Cl)c(Cl)cc1Cl` [Chlorpyrifos, chlorpyrifos] had an IC50 on CYP450 2C9 [2] of 3200 nM.
Consider `CCOP(=S)(OCC)Oc1ccc([N+](=O)[O-])cc1` [Parathion, parathion], for which the IC50 in series [3] amounted to 4.9 ± 0.4 nM.
The term Ki denotes a measure of affinity in units of concentration, obtained from inhibition or displacement. For the compound `Oc1cc(Cl)ccc1Oc1ccc(Cl)cc1Cl` [Triclosan, triclosan], in series [1], the half-maximal inhibitory concentration (IC50) was found to be 210 ± 20 nM and affinity was put at a Ki of 105 ± 5 nM.
`CC1CCCCC1NC(=O)Nc1ccccc1` (stereo not drawn) [Siduron, siduron]: the 50% inhibitory concentration (IC50) in series [4] was 33 ± 3 nM.
On to `ClC1=C(Cl)C2(Cl)C3C4CC(C5OC45)C3C1(Cl)C2(Cl)Cl` (stereo not drawn) [Endrin], for which a half-maximal response at estrogen receptor (ER) (EC50) required 13000 nM.
`C/C=C/C(=O)Oc1c(C(C)CCCCCC)cc([N+](=O)[O-])cc1[N+](=O)[O-]` (stereo not drawn) [2-Methylheptyl-4,6-dinitrophenyl crotonate] returned a half-inhibitory concentration (IC50) on CYP450 2C9 [5] of 120 ± 1 nM.
As for `CCOP(=S)(OCC)SCSc1ccc(Cl)cc1` [Carbophenothion, carbophenothion], the IC50 in series [3] turned out to be 110 ± 15 nM.
The compound `Clc1ccc(-c2nc3ccccc3s2)cc1` [CPB, 2-(4-chlorophenyl)-benzothiazole] yielded an EC50 in series [6] of 11400 nM.
For the compound Pyrethrum, on CYP450 2C9 [5], it took 2300 nM to reach half-maximal inhibition (IC50).
`O=C1C(Cl)=C(Cl)C(=O)c2ccccc21` [Dichlone, dichlone] displayed an EC50 in series [6] of more than 10000 nM.
`O=C(Nc1ccc(Cl)cc1)Nc1ccc(Cl)c(Cl)c1` [TCC, trichlorocarbanilide]: the IC50 in series [4] is 13 ± 1 nM.
